Values of other authors as cited in patent US20080021079A1, “Compounds, Compositions, and Methods” (priority 2003, published 2008).

test system: A549 cells

Row | Compound | GI50 [nM]
1 | O=c1[nH]cc(F)c(=O)[nH]1 [5-fluorouracil] | 1000
2 | COc1cccc2c1C(=O)c1c(O)c3c(c(O)c1C2=O)C[C@@](O)(C(=O)CO)C[C@@H]3O[C@H]1C[C@H](N)[C@H](O)[C@H](C)O1 [doxorubicin] | 63
3 | NC(=O)NO [hydroxyurea] | 500000
4 | CC(=O)O[C@H]1C(=O)[C@@]2(C)[C@H]([C@H](OC(=O)c3ccccc3)[C@]3(O)C[C@H](OC(=O)[C@H](O)[C@@H](NC(=O)c4ccccc4)c4ccccc4)C(C)=C1C3(C)C)[C@]1(OC(C)=O)CO[C@@H]1C[C@@H]2O [paclitaxel] | 4
